Test results as given in patent publication US12479847B2 (DANA-FARBER CANCER INSTITUTE, INC., priority 2019, dated 2025).
Like-named read-outs stand apart in the source and are kept apart here.

Assays:
Assay in all cases: KINOMEscan (ScanMAX) kinase profiling
Assay type in all cases: binding
[1] = biological target: T1, panel of 468 kinases (Homo sapiens, UniProt P49759); details: CLK1; 1 μM; read-out: % control
T1 construct: purchased KINOMEscan (ScanMAX) service

[2] = biological target: T2, panel of 468 kinases (Homo sapiens, UniProt O43293); details: DAPK3; 1 μM; read-out: % control
T2 construct: purchased KINOMEscan (ScanMAX) service

[3] = biological target: T3, panel of 468 kinases (Homo sapiens, UniProt Q9Y2U5); details: MAP3K2; 1 μM; read-out: % control
T3 construct: purchased KINOMEscan (ScanMAX) service
T3 sequence (Q9Y2U5 1-619): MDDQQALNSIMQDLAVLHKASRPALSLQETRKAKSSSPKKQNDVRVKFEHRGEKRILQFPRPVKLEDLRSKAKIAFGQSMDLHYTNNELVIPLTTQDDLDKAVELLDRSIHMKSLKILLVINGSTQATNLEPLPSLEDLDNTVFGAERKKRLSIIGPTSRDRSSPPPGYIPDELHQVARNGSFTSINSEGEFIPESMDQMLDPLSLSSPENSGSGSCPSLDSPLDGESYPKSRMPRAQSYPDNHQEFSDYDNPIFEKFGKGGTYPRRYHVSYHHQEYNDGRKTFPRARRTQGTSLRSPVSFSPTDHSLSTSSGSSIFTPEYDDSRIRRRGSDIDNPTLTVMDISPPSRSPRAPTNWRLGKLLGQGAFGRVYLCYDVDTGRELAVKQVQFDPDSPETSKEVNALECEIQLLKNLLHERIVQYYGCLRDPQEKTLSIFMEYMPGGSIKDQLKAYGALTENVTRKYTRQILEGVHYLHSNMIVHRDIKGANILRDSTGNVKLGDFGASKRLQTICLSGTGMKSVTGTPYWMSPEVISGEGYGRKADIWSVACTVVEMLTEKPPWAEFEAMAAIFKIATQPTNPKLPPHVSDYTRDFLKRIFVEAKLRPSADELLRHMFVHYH

[4] = biological target: T4, panel of 468 kinases (Homo sapiens, UniProt P23458); details: 1 μM, read-out: % control
T4 construct: purchased KINOMEscan (ScanMAX) service

[5] = biological target: T5, panel of 468 kinases (Homo sapiens, UniProt Q32MK0); details: MLCK; 1 μM; read-out: % control
T5 construct: purchased KINOMEscan (ScanMAX) service
T5 sequence (Q32MK0 1-819): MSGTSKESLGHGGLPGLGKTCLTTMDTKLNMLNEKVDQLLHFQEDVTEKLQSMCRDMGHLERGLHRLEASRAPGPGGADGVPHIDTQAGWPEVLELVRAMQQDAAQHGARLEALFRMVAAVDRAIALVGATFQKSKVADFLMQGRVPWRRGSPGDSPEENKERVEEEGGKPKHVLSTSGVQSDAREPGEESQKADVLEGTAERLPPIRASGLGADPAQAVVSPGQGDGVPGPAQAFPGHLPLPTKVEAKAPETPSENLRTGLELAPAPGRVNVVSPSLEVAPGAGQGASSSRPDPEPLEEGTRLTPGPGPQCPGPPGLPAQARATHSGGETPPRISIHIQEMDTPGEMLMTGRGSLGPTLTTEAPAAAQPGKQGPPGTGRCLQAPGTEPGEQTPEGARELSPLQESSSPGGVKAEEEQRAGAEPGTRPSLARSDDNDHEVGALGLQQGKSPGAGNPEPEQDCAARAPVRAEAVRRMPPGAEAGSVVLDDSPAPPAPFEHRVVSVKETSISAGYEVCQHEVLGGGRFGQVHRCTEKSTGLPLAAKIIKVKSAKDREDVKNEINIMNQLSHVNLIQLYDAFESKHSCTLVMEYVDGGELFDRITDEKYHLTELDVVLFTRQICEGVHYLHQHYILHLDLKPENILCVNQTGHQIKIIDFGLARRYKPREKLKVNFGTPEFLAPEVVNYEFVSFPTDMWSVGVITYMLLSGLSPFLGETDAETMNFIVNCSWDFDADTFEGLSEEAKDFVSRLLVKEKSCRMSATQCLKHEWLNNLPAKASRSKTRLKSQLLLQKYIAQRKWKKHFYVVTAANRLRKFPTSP

[6] = biological target: T6, panel of 468 kinases (Homo sapiens, UniProt P17612); details: PKAC-alpha; 1 μM; read-out: % control
T6 construct: purchased KINOMEscan (ScanMAX) service

[7] = biological target: T7, panel of 468 kinases (Homo sapiens, UniProt Q8TD08); details: ERK8; 1 μM; read-out: % control
T7 construct: purchased KINOMEscan (ScanMAX) service
T7 sequence (Q8TD08 1-544): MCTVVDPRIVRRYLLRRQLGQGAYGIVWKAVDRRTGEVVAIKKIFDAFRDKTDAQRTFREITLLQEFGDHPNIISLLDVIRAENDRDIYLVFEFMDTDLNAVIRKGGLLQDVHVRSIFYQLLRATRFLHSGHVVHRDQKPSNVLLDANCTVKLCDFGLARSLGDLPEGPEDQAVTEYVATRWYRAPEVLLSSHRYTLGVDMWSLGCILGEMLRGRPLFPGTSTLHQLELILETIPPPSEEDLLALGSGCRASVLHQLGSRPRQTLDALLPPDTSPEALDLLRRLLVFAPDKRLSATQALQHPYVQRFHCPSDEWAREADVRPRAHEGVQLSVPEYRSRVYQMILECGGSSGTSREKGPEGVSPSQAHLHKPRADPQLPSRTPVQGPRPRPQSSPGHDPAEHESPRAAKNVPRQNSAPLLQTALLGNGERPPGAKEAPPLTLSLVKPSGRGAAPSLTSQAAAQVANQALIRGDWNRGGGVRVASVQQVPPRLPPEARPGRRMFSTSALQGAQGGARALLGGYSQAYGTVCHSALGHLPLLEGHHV

[8] = biological target: T8, panel of 468 kinases (Homo sapiens, UniProt Q9BQI3); details: EIF2AK1; 1 μM; read-out: % control
T8 construct: purchased KINOMEscan (ScanMAX) service
T8 sequence (Q9BQI3 whole entry): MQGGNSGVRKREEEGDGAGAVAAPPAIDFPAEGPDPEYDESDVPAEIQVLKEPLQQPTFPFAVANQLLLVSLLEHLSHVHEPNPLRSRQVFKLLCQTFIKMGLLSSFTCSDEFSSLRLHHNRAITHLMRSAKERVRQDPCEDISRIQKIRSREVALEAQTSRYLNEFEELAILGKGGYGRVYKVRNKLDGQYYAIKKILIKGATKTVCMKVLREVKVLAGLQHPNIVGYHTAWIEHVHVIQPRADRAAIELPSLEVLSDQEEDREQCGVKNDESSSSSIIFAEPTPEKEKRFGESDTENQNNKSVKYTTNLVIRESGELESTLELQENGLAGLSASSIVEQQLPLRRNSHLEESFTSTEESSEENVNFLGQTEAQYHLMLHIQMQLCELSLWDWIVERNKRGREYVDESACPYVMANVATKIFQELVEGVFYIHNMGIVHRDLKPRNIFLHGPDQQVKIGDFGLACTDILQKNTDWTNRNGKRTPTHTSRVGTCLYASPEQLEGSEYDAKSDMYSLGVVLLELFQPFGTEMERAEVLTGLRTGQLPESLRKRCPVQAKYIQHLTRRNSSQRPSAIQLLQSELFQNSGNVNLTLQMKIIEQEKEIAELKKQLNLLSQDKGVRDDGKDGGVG

T1 sequence (P49759 whole entry): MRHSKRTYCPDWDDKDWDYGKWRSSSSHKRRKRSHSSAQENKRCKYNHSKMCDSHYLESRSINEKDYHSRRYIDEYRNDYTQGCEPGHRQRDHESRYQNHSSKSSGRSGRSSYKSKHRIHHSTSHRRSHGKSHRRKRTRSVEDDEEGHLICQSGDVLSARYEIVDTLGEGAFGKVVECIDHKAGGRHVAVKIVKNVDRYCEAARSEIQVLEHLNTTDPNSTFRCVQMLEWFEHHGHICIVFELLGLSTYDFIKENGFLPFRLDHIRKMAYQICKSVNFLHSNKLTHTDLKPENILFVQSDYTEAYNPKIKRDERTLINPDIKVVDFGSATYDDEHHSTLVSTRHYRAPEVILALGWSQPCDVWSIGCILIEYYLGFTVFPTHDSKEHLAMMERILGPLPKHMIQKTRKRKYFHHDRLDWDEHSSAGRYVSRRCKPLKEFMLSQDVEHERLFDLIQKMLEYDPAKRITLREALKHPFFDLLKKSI
T2 sequence (O43293 whole entry): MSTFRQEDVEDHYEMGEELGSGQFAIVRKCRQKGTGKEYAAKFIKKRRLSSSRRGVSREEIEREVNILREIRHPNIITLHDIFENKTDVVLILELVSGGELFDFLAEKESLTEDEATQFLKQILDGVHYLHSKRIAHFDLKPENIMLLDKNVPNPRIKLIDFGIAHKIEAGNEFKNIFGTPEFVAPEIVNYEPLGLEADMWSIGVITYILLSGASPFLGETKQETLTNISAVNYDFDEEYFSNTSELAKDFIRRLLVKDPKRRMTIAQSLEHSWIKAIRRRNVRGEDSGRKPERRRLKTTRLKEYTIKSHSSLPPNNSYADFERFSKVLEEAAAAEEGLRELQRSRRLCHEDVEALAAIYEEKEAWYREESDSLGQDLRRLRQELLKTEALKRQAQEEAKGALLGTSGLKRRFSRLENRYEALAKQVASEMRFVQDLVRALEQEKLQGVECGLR
T4 sequence (P23458 whole entry): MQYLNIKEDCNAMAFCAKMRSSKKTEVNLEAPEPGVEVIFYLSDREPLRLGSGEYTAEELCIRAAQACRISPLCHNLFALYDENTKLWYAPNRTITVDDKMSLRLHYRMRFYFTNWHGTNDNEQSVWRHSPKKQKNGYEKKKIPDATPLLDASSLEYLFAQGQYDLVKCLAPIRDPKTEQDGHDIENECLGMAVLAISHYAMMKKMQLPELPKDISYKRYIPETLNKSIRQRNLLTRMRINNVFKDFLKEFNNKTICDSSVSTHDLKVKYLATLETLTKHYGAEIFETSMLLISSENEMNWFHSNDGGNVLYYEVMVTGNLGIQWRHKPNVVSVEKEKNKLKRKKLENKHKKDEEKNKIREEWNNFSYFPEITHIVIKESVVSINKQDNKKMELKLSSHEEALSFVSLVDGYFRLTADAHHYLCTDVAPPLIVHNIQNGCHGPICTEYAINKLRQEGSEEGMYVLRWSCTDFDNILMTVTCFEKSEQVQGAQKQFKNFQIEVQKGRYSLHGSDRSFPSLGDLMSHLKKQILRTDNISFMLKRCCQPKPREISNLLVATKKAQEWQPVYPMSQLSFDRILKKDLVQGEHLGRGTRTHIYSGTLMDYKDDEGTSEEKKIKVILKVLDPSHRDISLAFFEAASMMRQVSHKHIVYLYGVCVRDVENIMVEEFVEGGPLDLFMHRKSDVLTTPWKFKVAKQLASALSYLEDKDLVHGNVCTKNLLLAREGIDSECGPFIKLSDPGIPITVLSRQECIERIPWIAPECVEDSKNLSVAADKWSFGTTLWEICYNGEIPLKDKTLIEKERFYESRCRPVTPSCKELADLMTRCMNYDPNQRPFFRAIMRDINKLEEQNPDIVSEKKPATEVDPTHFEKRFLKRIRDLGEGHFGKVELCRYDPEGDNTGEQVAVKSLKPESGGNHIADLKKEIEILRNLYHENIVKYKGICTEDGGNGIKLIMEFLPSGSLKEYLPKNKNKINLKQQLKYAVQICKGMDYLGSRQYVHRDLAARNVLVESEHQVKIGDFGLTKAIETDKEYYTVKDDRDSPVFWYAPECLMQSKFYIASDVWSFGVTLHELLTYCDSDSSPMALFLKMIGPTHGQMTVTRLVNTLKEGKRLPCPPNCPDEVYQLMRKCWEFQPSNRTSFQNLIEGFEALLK

SMILES	remaining binding at 1 µM [1] [%]	remaining binding at 1 µM [2] [%]	remaining binding at 1 µM [3] [%]	remaining binding at 1 µM ([4]; JAK1(JH1domain-catalytic)) [%]	remaining binding at 1 µM ([4]; JAK1(JH2domain-pseudokinase)) [%]	remaining binding at 1 µM [5] [%]	remaining binding at 1 µM [6] [%]	remaining binding at 1 µM [7] [%]	remaining binding at 1 µM [8] [%]
CNc1nc(Nc2ccc(C(=O)N3CCC(N4CCOCC4)CC3)c3c2OCO3)nc2[nH]cc(Cl)c12 [Compound 75, (7-((5-chloro-4-(methylamino)-7H-pyrrolo[2,3-d]pyrimidin-2-yl)amino)benzo[d][1,3]dioxol-4-yl)(4-morpholinopiperidin-1-yl)methanone]	3.4	16	15	100	64	35	100	100	62
CNc1nc(Nc2ccc(S(=O)(=O)N3CCC(N4CCOCC4)CC3)cc2OC)nc2[nH]cc(Cl)c12 [Compound 12, 5-chloro-N2-(2-methoxy-4-((4-morpholinopiperidin-1-yl)sulfonyl)phenyl)-N4-methyl-7H-pyrrolo[2,3-d]pyrimidine-2,4-diamine]	6.1	35	80	100	73	100	100	100	100
CNc1nc(Nc2ccc(P3(=O)CCN(C4CCOCC4)CC3)cc2OC)nc2[nH]cc(Cl)c12 [Compound 77, 4-(4-((5-chloro-4-(methylamino)-7H-pyrrolo[2,3-d]pyrimidin-2-yl)amino)-3-methoxyphenyl)-1-(tetrahydro-2H-pyran-4-yl)-1,4-azaphosphinane 4-oxide]	7.1	9.9	86	100	34	98	100	100	81
